ChEMBL document CHEMBL1201862, “PubChem BioAssay data set” (2004)
“And” between values parts separate entries of the source, which are not always exact repeats. Equal entries are not always repeated.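 These data come from cells grown in 96-well plates and exposed to compound for 48 hours at five concentrations. The concentration for 50% growth inhibition is given as GI50.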 The source made the active and inactive calls. Cut-off read from the data, not from the text of the source: active = GI50 up to about 1.1 µM and inactive = higher.

Legend:
Assay in all cases: NCI anticancer screen, dose series, 48 h
OVCAR-3 = test system: OVCAR-3
HOP-92 = test system: HOP-92
OVCAR-8 = test system: OVCAR-8
HCT-15 = test system: HCT-15
NCI-H522 = test system: NCI-H522
UACC-257 = test system: UACC-257
RXF 393 = test system: RXF 393
DU-145 = test system: DU-145
SK-OV-3 = test system: SK-OV-3
SF-295 = test system: SF-295
SR = test system: SR
SF-268 = test system: SF-268
A498 = test system: A498
SN12C = test system: SN12C
SNB-75 = test system: SNB-75
TK-10 = test system: TK-10
EKVX = test system: EKVX
HCT-116 = test system: HCT-116
SNB-19 = test system: SNB-19
T47D = test system: T47D

Measured: GI50

N=C(N)N/N=C/c1c(-c2cc([N+](=O)[O-])c(Cl)cc2Cl)nc2sccn12
2.15 µM (inactive) and 449 nM (active): DU-145
2.47 µM and 1.26 µM: HCT-15
inactive: OVCAR-3 1.86 µM | HOP-92 1.8 µM and 1.13 µM | OVCAR-8 1.98 µM and 2 µM | UACC-257 1.41 µM and 1.44 µM | RXF 393 1.46 µM | SK-OV-3 1.83 µM | SF-295 1.56 µM and 1.47 µM | SF-268 1.83 µM | A498 1.62 µM and 1.61 µM | SN12C 2 µM and 1.34 µM | TK-10 1.54 µM and 1.57 µM | EKVX 1.72 µM and 1.77 µM
340 nM (active) and 1.76 µM (inactive): NCI-H522
active: SR 0.0368 µM | SNB-75 0.0155 µM

C[C@H](c1ccccc1)N1C(=O)[C@@H](OCc2ccccc2)[C@H]1[C@H](COC(=O)COCc1ccccc1)OCc1ccccc1
> 100 µM: HCT-15
inactive: OVCAR-3 > 100 µM | HOP-92 > 100 µM | NCI-H522 86.9 µM | HCT-116 > 100 µM | DU-145 > 100 µM | SNB-19 37.1 µM | SK-OV-3 > 100 µM | SF-295 > 100 µM | SR > 100 µM | SF-268 > 100 µM | A498 > 100 µM | SN12C > 100 µM | SNB-75 9.08 µM | TK-10 > 100 µM | EKVX > 100 µM

CSc1nc(SC)c2c(C#N)n[nH]c2n1
> 100 µM: HCT-15
inactive: OVCAR-3 > 100 µM | HOP-92 48.5 µM | OVCAR-8 > 100 µM | NCI-H522 > 100 µM | UACC-257 > 100 µM | RXF 393 > 100 µM | SNB-19 > 100 µM | SK-OV-3 > 100 µM | SF-295 > 100 µM | SR > 100 µM | SF-268 > 100 µM | A498 > 100 µM | SN12C > 100 µM | SNB-75 63.5 µM | TK-10 49.4 µM | EKVX > 100 µM

c1ccc2c(c1)nc1n2sc2nc3ccccc3n21
> 100 µM: HCT-15
inactive: OVCAR-3 > 100 µM | HOP-92 > 100 µM | OVCAR-8 > 100 µM | NCI-H522 34.9 µM | UACC-257 > 100 µM | HCT-116 > 100 µM | DU-145 > 100 µM | SK-OV-3 > 100 µM | SF-295 > 100 µM | SR > 100 µM | SF-268 > 100 µM | SN12C > 100 µM | TK-10 > 100 µM | EKVX 54 µM

Cc1c(-c2cc(-c3ccccc3)n[nH]c2=O)c2ccccc2n1C
inactive: OVCAR-3 > 100 µM | HOP-92 > 100 µM | OVCAR-8 > 100 µM | NCI-H522 > 100 µM | UACC-257 > 100 µM | HCT-116 > 100 µM | RXF 393 > 61.7 µM | SNB-19 > 100 µM | SK-OV-3 > 100 µM | SF-295 > 100 µM | SR > 100 µM | SF-268 > 100 µM | A498 > 100 µM | SN12C > 100 µM | SNB-75 > 100 µM | TK-10 > 100 µM | EKVX > 100 µM
> 100 µM: HCT-15

CCOC(=O)C1=C(C)Nc2ccccc2S1
inactive: OVCAR-3 > 100 µM | HOP-92 44 µM | NCI-H522 > 100 µM | UACC-257 > 100 µM | HCT-116 > 100 µM | RXF 393 51.9 µM | SNB-19 > 100 µM | SK-OV-3 > 100 µM | SF-295 > 100 µM | SR > 100 µM | SF-268 > 100 µM | A498 > 100 µM | SN12C > 100 µM | SNB-75 > 100 µM | TK-10 > 100 µM | EKVX 14.3 µM
> 100 µM: HCT-15

Cn1cnc(CCc2ccccc2)n1
inactive: OVCAR-3 > 100 µM | HOP-92 > 100 µM | OVCAR-8 > 100 µM | NCI-H522 > 100 µM | UACC-257 > 100 µM | HCT-116 > 100 µM | RXF 393 > 100 µM | SK-OV-3 > 100 µM | SF-295 > 100 µM | SR > 100 µM | SF-268 > 100 µM | A498 > 100 µM | SN12C > 100 µM | SNB-75 > 100 µM | TK-10 > 100 µM
> 100 µM: HCT-15

COc1cccc(C2c3cc4c(cc3OC3COC(=O)C32)OCO4)c1OC (stereo not drawn)
34.8 µM: HCT-15
inactive: OVCAR-3 > 100 µM | HOP-92 99.8 µM | OVCAR-8 > 100 µM | UACC-257 > 100 µM | HCT-116 20.2 µM | RXF 393 83.4 µM | DU-145 > 100 µM | SNB-19 > 100 µM | SK-OV-3 57.8 µM | SF-295 > 100 µM | SF-268 > 100 µM | A498 > 100 µM | SN12C > 100 µM | SNB-75 83.9 µM | TK-10 > 100 µM | EKVX > 100 µM

S=C(c1c[nH]c2ccccc12)N1CCN(c2ccccc2)CC1
active: SNB-75 0.403 µM
> 100 µM: HCT-15
inactive: OVCAR-3 > 100 µM | OVCAR-8 37.8 µM | UACC-257 > 100 µM | HCT-116 > 100 µM | RXF 393 > 100 µM | DU-145 > 100 µM | SNB-19 > 100 µM | SK-OV-3 > 100 µM | SF-295 79.8 µM | SR > 100 µM | SF-268 19.8 µM | A498 > 100 µM | SN12C 21.8 µM | TK-10 > 100 µM | EKVX 19.4 µM

CCOC(=O)c1c2ccc(/C=C/c3ccccc3)ccc-2c(C(=O)OCC)c1N
> 100 µM: HCT-15
inactive: OVCAR-3 > 100 µM | HOP-92 > 100 µM | NCI-H522 > 100 µM | UACC-257 > 100 µM | HCT-116 > 100 µM | RXF 393 > 100 µM | SNB-19 > 100 µM | SK-OV-3 86.1 µM | SF-295 > 100 µM | SR 4.2 µM | SF-268 > 100 µM | A498 36.1 µM | SNB-75 36.7 µM | TK-10 > 100 µM | EKVX > 100 µM

Cc1ccc(C(=O)OC[C@H]2CC[C@@H](n3cc(N(C)C4CCCCC4)c(=O)[nH]c3=O)O2)cc1
24.5 µM: HCT-15
inactive: OVCAR-3 21.6 µM | OVCAR-8 28.1 µM | NCI-H522 24.3 µM | UACC-257 32.7 µM | HCT-116 16.7 µM | RXF 393 16.7 µM | DU-145 > 100 µM | SNB-19 19.3 µM | SK-OV-3 8.28 µM | SF-295 15.7 µM | SR 95.7 µM | SF-268 28 µM | A498 19.5 µM | SN12C 20.7 µM | TK-10 30 µM | EKVX 38.9 µM

ClCCC[Si]12OCCN(CCO1)CCO2
inactive: OVCAR-3 > 100 µM | HOP-92 > 100 µM | OVCAR-8 > 100 µM | NCI-H522 > 100 µM | UACC-257 > 100 µM | HCT-116 > 100 µM | RXF 393 > 100 µM | SNB-19 > 100 µM | SK-OV-3 > 100 µM | SF-295 > 100 µM | SR > 100 µM | SF-268 > 100 µM | A498 > 100 µM | SN12C > 100 µM | SNB-75 > 100 µM | TK-10 > 100 µM | EKVX > 100 µM

C=C1C(=O)O[C@H]2C1C[C@@H](O)[C@@]1(C)OC1CC[C@@]1(C)O[C@H]21 (stereo partly drawn)
14.9 µM: HCT-15
inactive: HOP-92 17.2 µM | OVCAR-8 34.7 µM | NCI-H522 5.62 µM | UACC-257 19.5 µM | HCT-116 17.7 µM | RXF 393 17.9 µM | DU-145 36.6 µM | SNB-19 > 100 µM | SK-OV-3 > 100 µM | SF-295 99.1 µM | SR 14.1 µM | SF-268 48.1 µM | SN12C 20.1 µM | SNB-75 74.1 µM | TK-10 17.8 µM | EKVX 15.8 µM

CCOP(=O)(OCC)C1CC(O)C(=O)N1 (stereo not drawn)
inactive: OVCAR-3 > 100 µM | OVCAR-8 > 100 µM | UACC-257 > 100 µM | HCT-116 > 100 µM | DU-145 > 100 µM | SNB-19 > 100 µM | SK-OV-3 > 100 µM | SF-295 > 100 µM | SR > 100 µM | SF-268 > 100 µM | A498 > 100 µM | SN12C > 100 µM | SNB-75 > 100 µM | TK-10 > 100 µM | EKVX > 100 µM
> 100 µM: HCT-15

C[N+](C)(C)CC1CCC/C1=N/O (stereo not drawn)
inactive: OVCAR-3 > 100 µM | HOP-92 > 100 µM | OVCAR-8 1.86 µM | NCI-H522 > 100 µM | UACC-257 43 µM | HCT-116 21.5 µM | RXF 393 37.1 µM | SNB-19 > 100 µM | SK-OV-3 > 100 µM | SF-295 > 100 µM | SR 27.7 µM | SF-268 > 100 µM | A498 > 100 µM | SN12C > 100 µM | SNB-75 > 100 µM | TK-10 > 100 µM | EKVX > 100 µM
20 µM: HCT-15

COC(=O)CCC(=O)c1ccc2c(c1)CC1(Cc3ccccc3C1)C2
inactive: OVCAR-3 57.8 µM | HOP-92 31.3 µM | OVCAR-8 47.1 µM | NCI-H522 33.4 µM | UACC-257 24.3 µM | HCT-116 28.3 µM | RXF 393 > 100 µM | SK-OV-3 > 100 µM | SF-295 38 µM | SR 14.7 µM | T47D 39.1 µM | A498 48.6 µM | SN12C 82.6 µM | TK-10 78.7 µM | EKVX > 100 µM

CCOP(=O)(/C=C\n1ccc(N)nc1=O)OCC
inactive: OVCAR-3 > 100 µM | OVCAR-8 > 100 µM | NCI-H522 47.4 µM | UACC-257 > 100 µM | HCT-116 > 100 µM | RXF 393 > 100 µM | DU-145 > 100 µM | SNB-19 > 100 µM | SK-OV-3 > 100 µM | SF-295 > 100 µM | SF-268 > 100 µM | T47D > 100 µM | SN12C > 100 µM | SNB-75 > 100 µM | TK-10 > 100 µM | EKVX > 100 µM
> 100 µM: HCT-15
